Experimental data as given in US20230346912A1 (priority 2022, published 2023).

Tested on: spleen lymphocytes of B2 haplotype chickens infected with H9N2 AIV
Format: cell-based, chicken

Sequence | immunogenicity of individual peptide (IFN-γ ELISpot)
AVKGIGTMV [Polypeptide P10] | considered immunogenic
DVSFQGRGV [Polypeptide P11] | considered immunogenic
MSRDWLMLI [Polypeptide P373] | considered immunogenic
WIIRNWETV [Polypeptide P257] | considered immunogenic
